Measurements from patent US12441762B2, “Hepatitis c virus NS3/4A protease inhibitors” (priority 2019, dated 2025).
Like-named read-outs stand apart in the source and are kept apart here.

Assays:
Experiment in all cases: biochemical
[1] = target: T1, HCV NS3/4A protease D168A variant (Hepatitis C virus genotype 1a, UniProt P27958, C1185S/D1194A); assay type: biochemical
T1 construct: His-tag (cleaved yes); made in house; host or cells: Escherichia coli BL21(DE3), PET28a vector
Summary of the method: (§1)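 Inhibitors pre-incubated 1 h at room temperature with 2 nM NS3/4A protease (GT1a C159S or D168A) in 50 mM Tris, 5% glycerol, 10 mM DTT, 0.6 mM LDAO, 4% DMSO, pH 7.5. Km from global Michaelis-Menten fit of inner-filter-corrected initial velocities; three independent data sets per inhibitor and construct.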

[2] = tested on: HCV NS3/4A protease D168A variant; assay type: biochemical, Hepatitis C virus; conditions: Table S1, value in parentheses
Summary of the method: as §1

[3] = target: T2, wild-type HCV NS3/4A protease (GT1a) (Hepatitis C virus genotype 1a, UniProt P27958, C1185S); assay type: biochemical
T2 construct: His-tag (cleaved yes); made in house; host or cells: Escherichia coli BL21(DE3), PET28a vector
T2 sequence (P27958 1027-1208 C1185S): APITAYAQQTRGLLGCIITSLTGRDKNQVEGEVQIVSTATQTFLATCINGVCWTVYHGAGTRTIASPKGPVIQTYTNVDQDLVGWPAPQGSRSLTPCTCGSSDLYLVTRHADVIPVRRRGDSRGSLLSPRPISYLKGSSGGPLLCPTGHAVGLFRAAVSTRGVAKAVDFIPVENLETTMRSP
Summary of the method: as §1

[4] = target: HCV NS3/4A protease GT3 (Hepatitis C virus genotype 3a, UniProt Q81495)
Chain of HCV NS3/4A protease GT3 (Q81495 1033-1214): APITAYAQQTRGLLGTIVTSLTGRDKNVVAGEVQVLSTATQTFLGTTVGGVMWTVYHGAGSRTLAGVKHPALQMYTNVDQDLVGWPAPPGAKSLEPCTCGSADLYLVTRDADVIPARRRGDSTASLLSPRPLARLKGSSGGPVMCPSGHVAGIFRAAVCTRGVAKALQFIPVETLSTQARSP
Chain of HCV NS3/4A protease GT3 (Q81495 1664-1717): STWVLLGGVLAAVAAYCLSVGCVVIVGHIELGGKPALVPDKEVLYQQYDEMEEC

T1 sequence (P27958 1027-1208 C1185S/D1194A): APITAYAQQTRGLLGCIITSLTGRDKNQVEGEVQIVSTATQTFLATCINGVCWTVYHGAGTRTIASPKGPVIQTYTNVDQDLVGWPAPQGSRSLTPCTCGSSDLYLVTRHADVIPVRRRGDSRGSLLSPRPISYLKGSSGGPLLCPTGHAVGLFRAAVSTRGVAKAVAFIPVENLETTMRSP

COc1ccc2nc(C)c(O[C@@H]3C[C@H]4C(=O)N[C@]5(C(=O)NS(=O)(=O)C6(C)CC6)C[C@H]5/C=C\CCCCC[C@H](NC(=O)OC5(C)CCCC5)C(=O)N4C3)nc2c1 [AJ-74, 1-Methylcyclopentyl ((2R,6S,13aS,14aR,16aS, Z)-2-((7-methoxy-3-methylquinoxalin-2-yl)oxy)-14a-(((1-methylcyclopropyl)sulfonyl)carbamoyl)-5,16-dioxo-1,2,3,5,6,7,8,9,10,11,13a,14,14a,15,16,16a-hexadecahydrocyclopropa[e]pyrrolo[1,2-a][1,4]diazacyclopentadecin-6-yl) carbamate]
Ki [1]: 16 ± 1.2 nM
Fold Change of D168A Ki with respect to GT1a wild-type [2]: (9) fold
Ki [3]: 1.78 ± 0.3 nM
Ki [4]: 151 ± 11 nM

COc1ccc2nc(C)c(O[C@@H]3C[C@H]4C(=O)N[C@]5(C(=O)NS(=O)(=O)C6(C)CC6)C[C@H]5/C=C\CCCCC[C@H](NC(=O)OC5(C)CCCC5)C(=O)N4C3)nc2c1 [JZ01-19]
Ki ([1]; Table 2, read-out: Ki D168A): 36 ± 1.8 nM
Ki ([1]; Table S1, Morrison equation fit, read-out: Ki D168A): 36 ± 1.8 nM
fold increase in potency against D168A compared to the parent compound [1]: ~3 fold
Fold Change of D168A Ki with respect to GT1a wild-type ([2]; listed as P4-3): (32) fold
Ki ([3]; Table 2, read-out: Ki WT (GT1a)): 1.13 ± 0.22 nM
Ki ([3]; Table S1, Morrison equation fit, read-out: Ki GT1a WT): 1.13 ± 0.22 nM
Ki ([4]; Table 2, read-out: Ki GT3): 121 ± 16 nM

COc1ccc2nc(C(F)(F)F)c(O[C@@H]3C[C@H]4C(=O)N[C@]5(C(=O)NS(=O)(=O)C6(C)CC6)C[C@H]5/C=C\CCCCC[C@H](NC(=O)OC5CC5)C(=O)N4C3)nc2c1 [NR02-46, Cyclopropyl ((2R,6S,13aS,14aR,16aS,Z)-2-((7-methoxy-3-(trifluoromethyl)quinoxalin-2-yl)oxy)-14a-(((1-methylcyclopropyl)sulfonyl)carbamoyl)-5,16-dioxo-1,2,3,5,6,7,8,9,10,11,13a,14,14a,15,16,16a-hexadecahydrocyclopropa[e]pyrrolo[1,2-a][1,4]diazacyclopentadecin-6-yl)carbamate]
Ki [1]: 67.5 ± 3.9 nM
Ki [3]: 13.6 ± 0.9 nM
Ki [4]: 522 ± 25 nM

COc1ccc2nc(C)c(O[C@@H]3C[C@H]4C(=O)N[C@]5(C(=O)NS(=O)(=O)C6(C)CC6)C[C@H]5/C=C\CCCCC[C@H](NC(=O)OCC5(C)CC5(F)F)C(=O)N4C3)nc2c1 (stereo partly drawn) [NR02-55, (2,2-Difluoro-1-methylcyclopropyl)methyl ((2R,6S,13aS,14aR,16aS,Z)-2-((7-methoxy-3-methylquinoxalin-2-yl)oxy)-14a-(((1-methylcyclopropyl)sulfonyl)carbamoyl)-5,16-dioxo-1,2,3,5,6,7,8,9,10,11,13a,14,14a,15,16,16a-hexadecahydrocyclopropa[e]pyrrolo[1,2-a][1,4]diazacyclopentadecin-6-yl)carbamate]
Ki [1]: 4.7 ± 0.5 nM
Ki [3]: 3.1 ± 0.3 nM
Ki [4]: 100 ± 12 nM

COc1ccc2nc(C(F)(F)F)c(O[C@@H]3C[C@H]4C(=O)N[C@]5(C(=O)NS(=O)(=O)C6(C)CC6)C[C@H]5/C=C\CCCCC[C@H](NC(=O)OCC5(C)CC5(F)F)C(=O)N4C3)nc2c1 (stereo partly drawn) [NR02-56, (2,2-Difluoro-1-methylcyclopropyl)methyl ((2R,6S,13aS,14aR,16aS,Z)-2-((7-methoxy-3-(trifluoromethyl)quinoxalin-2-yl)oxy)-14a-(((1-methylcyclopropyl)sulfonyl)carbamoyl)-5,16-dioxo-1,2,3,5,6,7,8,9,10,11,13a,14,14a,15,16,16a-hexadecahydrocyclopropa[e]pyrrolo[1,2-a][1,4]diazacyclopentadecin-6-yl)carbamate]
Ki [1]: 7.1 ± 0.9 nM
Ki [3]: 2.1 ± 0.5 nM
Ki [4]: 336 ± 47 nM

COc1ccc2nc(C)c(O[C@@H]3C[C@H]4C(=O)N[C@]5(C(=O)NS(=O)(=O)C6(C)CC6)C[C@H]5/C=C\CCCCC[C@H](NC(=O)OC5(C(F)(F)F)CCC5)C(=O)N4C3)nc2c1 [NR02-58, 1-(Trifluoromethyl)cyclobutyl ((2R,6S,13aS,14aR,16aS,Z)-2-((7-methoxy-3-methylquinoxalin-2-yl)oxy)-14a-(((1-methylcyclopropyl)sulfonyl)carbamoyl)-5,16-dioxo-1,2,3,5,6,7,8,9,10,11,13a,14,14a,15,16,16a-hexadecahydrocyclopropa[e]pyrrolo[1,2-a][1,4]diazacyclopentadecin-6-yl)carbamate]
Ki [1]: 11.3 ± 2 nM
Ki [3]: 1.5 ± 0.2 nM
Ki [4]: 96 ± 17 nM

COc1ccc2nc(C(F)(F)F)c(O[C@@H]3C[C@H]4C(=O)N[C@]5(C(=O)NS(=O)(=O)C6(C)CC6)C[C@H]5/C=C\CCCCC[C@H](NC(=O)OC5(C(F)(F)F)CCC5)C(=O)N4C3)nc2c1 [NR02-59, 1-(Trifluoromethyl)cyclobutyl ((2R,6S,13aS,14aR,16aS,Z)-2-((7-methoxy-3-(trifluoromethyl)quinoxalin-2-yl)oxy)-14a-(((1-methylcyclopropyl)sulfonyl)carbamoyl)-5,16-dioxo-1,2,3,5,6,7,8,9,10,11,13a,14,14a,15,16,16a-hexadecahydrocyclopropa[e]pyrrolo[1,2-a][1,4]diazacyclopentadecin-6-yl)carbamate]
Ki [1]: 12.2 ± 1.1 nM
Ki [3]: 2 ± 0.2 nM
Ki [4]: 133 ± 25 nM

COc1ccc2nc(C)c(O[C@@H]3C[C@H]4C(=O)N[C@]5(C(=O)NS(=O)(=O)C6(C)CC6)C[C@H]5/C=C\CCCCC[C@H](NC(=O)OC5(C(F)(F)F)CCCC5)C(=O)N4C3)nc2c1 [NR02-60, 1-(Trifluoromethyl)cyclopentyl ((2R,6S,13aS,14aR,16aS,Z)-2-((7-methoxy-3-methylquinoxalin-2-yl)oxy)-14a-(((1-methylcyclopropyl)sulfonyl)carbamoyl)-5,16-dioxo-1,2,3,5,6,7,8,9,10,11,13a,14,14a,15,16,16a-hexadecahydrocyclopropa[e]pyrrolo [1,2-a][1,4]diazacyclopentadecin-6-yl)carbamate]
Ki [1]: 8.1 ± 1.5 nM
Ki [3]: 1.3 ± 0.2 nM
Ki [4]: 104 ± 7 nM

COc1ccc2nc(C(F)(F)F)c(O[C@@H]3C[C@H]4C(=O)N[C@]5(C(=O)NS(=O)(=O)C6(C)CC6)C[C@H]5/C=C\CCCCC[C@H](NC(=O)OC5(C)CCC5)C(=O)N4C3)nc2c1 [NR02-62, 1-Methylcyclobutyl ((2R,6S,13aS,14aR,16aS,Z)-2-((7-methoxy-3-(trifluoromethyl)quinoxalin-2-yl)oxy)-14a-(((1-methylcyclopropyl)sulfonyl)carbamoyl)-5,16-dioxo-1,2,3,5,6,7,8,9,10,11,13a,14,14a,15,16,16a-hexadecahydrocyclopropa[e]pyrrolo[1,2-a][1,4]diazacyclopentadecin-6-yl)carbamate]
Ki [1]: 20.7 ± 0.7 nM
Ki [3]: 4.86 ± 0.39 nM
Ki [4]: 283 ± 21 nM

COc1ccc2nc(C)c(O[C@@H]3C[C@H]4C(=O)N[C@]5(C(=O)NS(=O)(=O)C6(C)CC6)C[C@H]5/C=C\CCCCC[C@H](NC(=O)OC5CCCCC5)C(=O)N4C3)nc2c1 [NR03-67, Cyclohexyl ((2R,6S,13aS,14aR,16aS,Z)-2-((7-methoxy-3-methylquinoxalin-2-yl)oxy)-14a-(((1-methylcyclopropyl)sulfonyl)carbamoyl)-5,16-dioxo-1,2,3,5,6,7,8,9,10,11,13a,14,14a,15,16,16a-hexadecahydrocyclopropa[e]pyrrolo[1,2-a][1,4]diazacyclopentadecin-6-yl)carbamate]
Ki [1]: 12.7 ± 1.2 nM
fold increase in potency against D168A compared to the parent compound [1]: ~3 fold
Fold Change of D168A Ki with respect to GT1a wild-type [2]: (14) fold
Ki [3]: 0.94 ± 0.25 nM
Ki [4]: 145 ± 7 nM

COc1ccc2nc(C)c(O[C@@H]3C[C@H]4C(=O)N[C@]5(C(=O)NS(=O)(=O)C6(C)CC6)C[C@H]5/C=C\CCCCC[C@H](NC(=O)O[C@@H]5C[C@@H]6C[C@@H]6C5)C(=O)N4C3)nc2c1 [NR03-77, (1R,3R,5S)-Bicyclo[3.1.0]hexan-3-yl ((2R,6S,13aS,14aR,16aS,Z)-2-((7-methoxy-3-methylquinoxalin-2-yl)oxy)-14a-(((1-methylcyclopropyl)sulfonyl)carbamoyl)-5,16-dioxo-1,2,3,5,6,7,8,9,10,11,13a,14,14a,15,16,16a-hexadecahydrocyclopropa[e]pyrrolo[1,2-a][1,4]diazacyclopentadecin-6-yl)carbamate]
Ki [1]: 2.3 ± 0.7 nM
fold more potent than grazoprevir towards D168A ([1]; compared to grazoprevir): 20 fold
fold increase in potency against D168A compared to the parent compound [1]: 26 fold
Fold Change of D168A Ki with respect to GT1a wild-type [2]: (4) fold
Ki [3]: 0.54 ± 0.2 nM
fold improvement in potency against WT compared to P4-2 ([3]; compared to P4-2): ~3 fold
Ki [4]: 38.6 ± 1.5 nM

COc1ccc2nc(C(F)(F)F)c(O[C@@H]3C[C@H]4C(=O)N[C@]5(C(=O)NS(=O)(=O)C6(C)CC6)C[C@H]5/C=C\CCCCC[C@H](NC(=O)OC5(C(F)(F)F)CCCC5)C(=O)N4C3)nc2c1 [NR04-01, 1-(Trifluoromethyl)cyclopentyl ((2R,6S,13aS,14aR,16aS,Z)-2-((7-methoxy-3-(trifluoromethyl)quinoxalin-2-yl)oxy)-14a-(((1-methylcyclopropyl)sulfonyl)carbamoyl)-5,16-dioxo-1,2,3,5,6,7,8,9,10,11,13a,14,14a,15,16,16a-hexadecahydrocyclopropa[e]pyrrolo[1,2-a][1,4]diazacyclopentadecin-6-yl)carbamate]
Ki [1]: 20.4 ± 0.9 nM
Ki [3]: 5.66 ± 0.5 nM
Ki [4]: 414 ± 23 nM
